Test results published in patent publication US7321046B2, “Analogs of dictyostatin, intermediates therefor and methods of synthesis thereof” (University of Pittsburgh, priority 2002, dated 2008).
Read-outs that look alike come from different tables or passages of the source. Values belong to the molecule of their own block, whether it stands above or below them.

Tests used:
[1] = ester bond, toluene, 2 steps
[2] = system: microtubules (tubulin polymer); experiment: Radiolabeled ligand binding assays; conditions: test agent 4 μM; radiolabel 4.0 μM; 37° C.
Procedure: The abilities of test agents to inhibit the binding of radiolabeled forms of the microtubule stabilizers paclitaxel, discodermolide and epothilone B from tubulin polymer were determined.
[^3H]Paclitaxel, [^3H]discodermolide and [^14C]epothilone B solutions were prepared as 125 μM stock solutions in 50% DMSO. Radiolabeled compound (final concentration, 4.0 μM) and test agents at final concentrations noted in the text and tables were mixed in 50 μL of 4:1 (v/v) 0.75 M aqueous MSG/DMSO and warmed to 37° C. Meanwhile, a reaction mixture containing 0.75 M MSG, 2.5 μM tubulin, and 25 μM ddGTP was prepared and incubated at 37° C. for 30 min to form microtubuless. A 200 μL aliquot of the microtubule mixture was added to the drug mixtures, and incubation continued for 30 min at 37° C. Reaction mixtures were centrifuged in an Eppendorf 5417C centrifuge at 14,000 rpm for 20 min at room temperature. Radiolabel in the supernatants (100 μL) was determined by scintillation spectrometry.

Bovine brain tubulin = system: T1, Bovine brain tubulin; experiment: Pelleting assay (tubulin assembly EC50 determination); format: biochemical; conditions: tubulin 10 μM in 0.2 M MSG, 15 min at 20° C.
T1 construct: Bovine brain tubulin (10 μM) in 0.2 M MSG, 15 min at 20° C
Procedure: Dictyostatin and representative analogs were evaluated in a quantitative assay for their ability to promote tubulin polymerization. […] When the percent polymer formed was determined in the reactions, a comparison of the activities of all the analogs could be made.
The assay was performed under three different reaction conditions following the procedure reported earlier (Gapud et al., 2004). Reaction condition 1 included 0.2 M monosodium glutamate (MSG), 10 μM tubulin, 5% DMSO and varying concentrations of test agents. Reaction condition 2 included 0.8 M MSG, 400 μM GTP, 10 μM tubulin, 5% DMSO, and varying concentrations of test agents. Reaction condition 3 had 0.6 M MSG, 200 μM GTP, and 10 μM tubulin, and 5% DMSO, and varying concentrations of the test agents. The experimental protocol for all the three reaction conditions was the following. The reaction mixtures were incubated at room temperature (20-22° C.) for 15 min and spun for 10 min at 14,000 rpm in an Eppendorf microtube centrifuge. Aliquots of the supernatants were removed and assayed for protein content by the method of Lowry.

[3] = system: human ovarian carcinoma cells (1A9); experiment: Antiproliferative assay (GI50, MTS); format: cell-based
Procedure: (§1) Representative analogs were examined for their antiproliferative activities against human ovarian carcinoma 1A9 cells and their paclitaxel-resistant mutants, 1A9/Ptx10 and 1A9/Ptx22.
[…] Cells were maintained in RPMI medium with 10% FBS in it, plated in tissue culture plates, and allowed to grow for 48-72 h before transferring them into 96-well plates. Cells were allowed to attach and grow for 48 h in 96-well plates after which they were treated with either control (DMSO) or drug in triplicate/quadruplicate. Cells were incubated with the compounds for 72 h. Cells were treated with MTS reagent before reading the plate in a Dynamax plate reader for determining the cell number. The fifty percent growth inhibition values (GI50 values) were calculated for the compounds against all the three cell lines.

[4] = system: 1A9/Ptx22 (Ala364 −> Thr) β-tubulin mutant cells; experiment: Antiproliferative assay (GI50, MTS), paclitaxel-resistant clone; format: cell-based, human; conditions: for fold-resistance: 1A9/Ptx22 versus parental 1A9
Procedure: as §1
(§2) The effects of dictyostatin and its analogs on growth inhibition of parental ([…]) and paclitaxel-resistant (1A9/Ptx10 and Ptx22) ovarian adenocarcinoma cell lines were evaluated following the antiproliferative assay protocol as described earlier (Minguez et al., 2003; Choy et al., 2003; Lazo et al., 2001). Cells were maintained in RPMI medium with 10% FBS in it, plated in tissue culture plates, and allowed to grow for 48-72 h before transferring them into 96-well plates. Cells were allowed to attach and grow for 48 h in 96-well plates after which they were treated with either control (DMSO) or drug in triplicate/quadruplicate. Cells were incubated with the compounds for 72 h. Cells were treated with MTS reagent before reading the plate in a Dynamax plate reader for determining the cell number. The fifty percent growth inhibition values (GI50 values) were calculated for the compounds against all the three cell lines.

[5] = system: 1A9/Ptx10 (Phe270 −> Val) β-tubulin mutant cells; experiment: as above; format: cell-based, human; conditions: for fold-resistance: 1A9/Ptx10 versus parental 1A9
Procedure: as §1, §2

HeLa cells = experiment: Multiparameter fluorescence high information content analysis of cellular effects; format: cell-based; conditions: 24 h treatment
Procedure: HeLa cells were plated on collagen-coated 384-well microtiter plates, allowed to attach, then treated for 24 h with test agents. Test agent concentrations began at 1 μM, and two-fold dilutions were made to levels below 1 nM. After the treatment period, the cells were fixed with formalin and their chromatin stained with Hoechst 33342. Cells were permeabilized and treated with primary antibodies for α-tubulin and phosphohistone H3, and then with fluorophore-labeled secondary antibodies. The three fluorescent channels were then examined on an ArrayScan II, which gives quantitative pixel distribution and density information in each channel on a per cell basis.
HeLa cells growing at log phase were trypsinized and plated in 40 μL at a density of 7,000-8,000 cells per well in calf skin collagen I-coated 384-well plates (Falcon #3962; Fisher Scientific). Cells were exposed to test agents or 0.5% DMSO within 2-8 h of plating. Concentrated DMSO stock solutions of all test agents were diluted into solutions of HBSS medium plus 10% FBS and added to the microplate wells (10 μL per well), using an automated liquid handling system (Biomek® 2000; Beckman-Coulter, Inc.) to provide a serial 2-fold dilution of each test agent. The cells were incubated in the presence of test agents for 24 h. At the end of the incubation, the medium was removed and replaced with HBSS containing 4% formaldehyde and 10 μg/mL Hoechst 33342 (25 μL/well) to fix the cells and fluorescently label their chromatin. After incubation at room temperature for 20-30 min, the solution was removed from each well and replaced with HBSS (100 μL/well). Further reagent additions were made to the microplates using the Biomek 2000. After removing the HBSS from each well, cells were permeabilized for 5 min at room temperature with 0.5% (w/w) Triton X-100 in HBSS (10 μL/well). This step extracts a fraction of the soluble cellular components, including soluble tubulin. The wells were washed with HBSS (100 μL/well), followed by addition of a primary antibody solution containing mouse anti-α-tubulin (1:3000) and rabbit anti-phosphohistone H3 (1:500) in HBSS (10 μL/well). After 1 h at room temperature, the wells were washed with HBSS as above, followed by the addition of a secondary antibody solution containing fluorescein-5-isothiocyanate (FITC)-labeled donkey anti-mouse (1:300) and Cy3-labeled donkey anti-rabbit (1:300) antibodies diluted in HBSS (10 μL/well). After 1 h at room temperature, the wells were washed as above, and HBSS was added (100 μL/well). The plates were placed in an ArrayScan® HCS Reader with the Target Activation BioApplication Software coupled to Cellomics® Store and the vHCS™ Discovery Toolbox (Cellomics, Inc.) to analyze images. Briefly, the instrument was used to scan multiple optical fields, each with multiparameter fluorescence, within a subset of the wells of the 384-well microplate. The BioApplication software produced multiple numerical feature values, such as subcellular object intensities, shapes, and location for each cell within an optical field. […] A nuclear mask was generated from Hoechst 33342-stained nuclei, and object identification thresholds and shape parameters were set such that the algorithm identified over 90% of the nuclei in each field. Objects that touched each other or the edge of the image were excluded from the analysis. Tubulin mass was defined as the average green (FITC) pixel intensity in an area defined by the Hoechst-defined nuclear mask. This cytoplasmic area around the nucleus contains cytoskeletal components is a region from which sensitive measurements of cytoplasmic characteristics can be made.

SMILES: C=C/C=C\[C@H](C)[C@@H]1OC(=O)/C=C\C=C\[C@@H](C)[C@@H](O[Si](C)(C)C(C)(C)C)C[C@H](O[Si](C)(C)C(C)(C)C)/C=C\[C@H](C)[C@H](O[Si](C)(C)C(C)(C)C)[C@@H](C)CCCC[C@@H](O[Si](C)(C)C(C)(C)C)[C@@H]1C
ring closure, yield of all isomers ([1]; from C=C/C=C\[C@H](C)[C@H](O)[C@@H](C)[C@@H](CCCC[C@H](C)[C@@H](O[Si](C)(C)C(C)(C)C)[C@@H](C)/C=C\[C@H](C[C@H](O[Si](C)(C)C(C)(C)C)[C@H](C)/C=C/C=C\C(=O)O)O[Si](C)(C)C(C)(C)C)O[Si](C)(C)C(C)(C)C, 2,4,6-trichlorobenzoyl chloride / Et3N / DMAP, 2.0 mM): 76%

SMILES: C=C/C=C\[C@H](C)[C@@H]1OC(=O)/C=C\C=C\[C@@H](C)[C@@H](O[Si](C)(C)C(C)(C)C)C[C@H](O[Si](C)(C)C(C)(C)C)/C=C\[C@H](C)[C@H](O[Si](C)(C)C(C)(C)C)[C@@H](C)C[C@@H](C)CC[C@@H](O[Si](C)(C)C(C)(C)C)[C@@H]1C
ring closure, yield of all isomers ([1]; from C=C/C=C\[C@H](C)[C@H](O)[C@@H](C)[C@@H](CC[C@H](C)C[C@H](C)[C@@H](O[Si](C)(C)C(C)(C)C)[C@@H](C)/C=C\[C@H](C[C@H](O[Si](C)(C)C(C)(C)C)[C@H](C)/C=C/C=C\C(=O)O)O[Si](C)(C)C(C)(C)C)O[Si](C)(C)C(C)(C)C, 2,4,6-trichlorobenzoyl chloride / Et3N / DMAP (Yamaguchi), 1.71 mM, 25.0 °C, 12.0 h): 78%

SMILES: C=C/C=C\[C@H](C)[C@@H]1OC(=O)/C=C\C=C\[C@@H](C)[C@@H](O[Si](C)(C)C(C)(C)C)C[C@H](O[Si](C)(C)C(C)(C)C)/C=C\[C@H](C)[C@H](O[Si](C)(C)C(C)(C)C)[C@@H](C)C[C@@H](C)CC[C@H](O[Si](C)(C)C(C)(C)C)[C@@H]1C
ring closure, yield of all isomers ([1]; from C=C/C=C\[C@H](C)[C@H](O)[C@@H](C)[C@H](CC[C@H](C)C[C@H](C)[C@@H](O[Si](C)(C)C(C)(C)C)[C@@H](C)/C=C\[C@H](C[C@H](O[Si](C)(C)C(C)(C)C)[C@H](C)/C=C/C=C\C(=O)O)O[Si](C)(C)C(C)(C)C)O[Si](C)(C)C(C)(C)C, 2,4,6-trichlorobenzoyl chloride / Et3N / DMAP (Yamaguchi), 1.74 mM, 25.0 °C, 12.0 h): 78%

SMILES: C=C/C=C\[C@H](C)[C@@H]1OC(=O)/C=C\C=C\[C@H](C)[C@@H](O[Si](C)(C)C(C)(C)C)C[C@H](O[Si](C)(C)C(C)(C)C)/C=C\[C@H](C)[C@H](O[Si](C)(C)C(C)(C)C)[C@H](C)C[C@@H](C)CC[C@@H](O[Si](C)(C)C(C)(C)C)C1C (stereo in doubt)
ring closure, yield of all isomers ([1]; from C=C/C=C\[C@H](C)[C@H](O)[C@@H](C)[C@@H](CC[C@H](C)C[C@@H](C)[C@@H](O[Si](C)(C)C(C)(C)C)[C@@H](C)/C=C\[C@H](C[C@H](O[Si](C)(C)C(C)(C)C)[C@@H](C)/C=C/C=C\C(=O)O)O[Si](C)(C)C(C)(C)C)O[Si](C)(C)C(C)(C)C, 2,4,6-trichlorobenzoyl chloride / Et3N / DMAP, 1.94 mM, 25.0 °C, 16.0 h): 78%

Percent inhibition of radiolabel from microtubules, [3H]Discodermolide [2]: 6 ± 5 (3) %
Percent inhibition of radiolabel from microtubules, [14C]Epothilone B [2]: 26 ± 1 (3) %
EC50 (Bovine brain tubulin; concentration required to polymerize 50% of tubulin, read-out: EC50 (μM) ± SD (N)): 25 ± 3 µM
antiproliferative potency / GI50 values (in words) ([3]; Table 1 (1A9 and mutant lines)): subnanomolar potency
SMILES: CC(=O)O[C@H]1C(=O)[C@@]2(C)[C@H]([C@H](OC(=O)c3ccccc3)[C@]3(O)C[C@H](OC(=O)[C@H](O)[C@@H](NC(=O)c4ccccc4)c4ccccc4)C(C)=C1C3(C)C)[C@]1(OC(C)=O)CO[C@@H]1C[C@@H]2O [paclitaxel, reference compound]
% Tubulin polymerized by 50 μM test agent (Bovine brain tubulin; 50 μM test agent): 89 ± 6%
GI50 ([3]; Homo sapiens, Ovarian carcinoma cell, 72 h, 1A9 parental cells, 72 h incubation, read-out: GI50 ± S.D.): 0.71 ± 0.11 nM
fold-resistance [4]: 72 fold
fold-resistance ([4]; listed as Paclitaxel): ~70 fold
GI50 ([4]; Homo sapiens, 1A9/ptx-22, 72 h, 1A9/Ptx22 (Ala364 −> Thr), 72 h incubation, read-out: GI50 ± S.D.): 51 ± 9 nM
fold-resistance [5]: 90 fold
fold-resistance ([5]; listed as Paclitaxel): ca. 90 fold
GI50 ([5]; Homo sapiens, 1A9/ptx-10, 72 h, 1A9/Ptx10 (Phe270 −> Val), 72 h incubation, read-out: GI50 ± S.D.): 64 ± 8 nM
Minimum detectable cellular change, Phosphohistone H3 (HeLa cells): 17.5 ± 6.8 (4)
Minimum detectable cellular change, Tubulin polymer intensity (HeLa cells): 8.0 ± 2.9 (4)
Minimum detectable cellular change, Nuclear condensation (HeLa cells; Hoechst 33342): 40.2 ± 13.9 (4)
